Assay results published in patent US11845770B2, “Ascaroside derivatives and methods of use” (California Institute of Technology, priority 2019, dated 2023).
“Also recorded” adds a separate entry of the source.

Assays:
Assay type in all cases: cell-based
human naïve T cells = assay: Stimulation of blood derived naïve T cells with Der p1 (house dust mite) antigen; settings: at 100 μM; human T cells, Der p1 antigen; FIG. 15
Protocol: Naïve T cells from peripheral blood samples were collected and processed using MACSxpress® Whole Blood Pan T Cell Isolation Kit (Miltenyi Biotec), according to the manufacturer's protocol. Isolated naïve T cells were cultured in RPMI medium supplemented with 5% Fetal Bovine Serum (FBS) at 37° C. with 5% (v/v) CO2. T cells were seeded in 24 well plates at a density of 0.5×10^6 cells per well. The cells were pre-treated with the compounds (0, 0.1, 1.0, 10, 100 μM) for 1 hour prior to stimulation. Cells were stimulated with […] of Dermatophagoides pteronyssinus (Der p1) antigen. After 48 hours, fresh […] of Der p1 was added and continued incubating for a further 72 hours at 37° C. with 5% (v/v) CO2. Overall T cells were stimulated with […] of Der p1 antigen for 5 days before supernatants were collected and stored at −80° C. until quantitative detection assays are performed.
Human Interleukin-4 (IL-4), Interleukin-5 (IL-5), Interleukin-6 (IL-6), Interleukin-8 (IL-8), Interleukin-13 ([…]), Interleukin-23 (IL-23), and Interferon gamma (IFNγ) released from supernatants collected post stimulation were measured using Human Magnetic Luminex® Assay Kit. Human Transforming Growth Factor beta (TGFβ) was measured using an Enzyme-Linked Immunosorbent Assay (ELISA)-based analysis.

[1] = system: EPC2 human esophageal keratinocytes; assay: Stimulation of EPC2-hTERT human esophageal keratinocytes with Poly(I:C); settings: 24 hours, increasing concentrations
Protocol: EPC2-hTERT (EPC2) cells were maintained in supplemented keratinocyte serum-free medium (KSFM) with 0.09 mM calcium chloride containing epidermal growth factor (5 ng/mL), bovine pituitary extract ([…]), penicillin (100 units/mL), and streptomycin ([…]) (ThermoFisher #17005042) at 37° C. with 5% (v/v) CO2. EPC2 cells were seeded in 12-well plates at 0.55×10^6 cells per well in supplemented KSFM at 37° C. with 5% (v/v) CO2 and after 6 hours the old media is removed and changed with fresh media. After overnight incubation, the old media is changed to supplemented KSFM containing 1.8 mM calcium chloride and incubated for 72 hours at 37° C. with 5% (v/v) CO2. After the old media is removed and fresh supplemented KSFM containing 1.8 mM calcium chloride is added, the cells are pre-treated with different concentrations of compounds (0, 1, 10, 100, 500, 1000 μM) for 1 hour prior to stimulation. To stimulate the cells, Poly (I:C) (Tocris #4287) is added to the wells at […] concentration without removing the media and incubated for 24 hours at 37° C. with 5% (v/v) CO2. Supernatants are collected in Eppendorf tubes, centrifuged in a microfuge at maximum speed for 10 minutes at 4° C., and the centrifuged supernatants stored at −80° C. until quantitative detection assays are performed. Human Interleukin-6 (IL-6), Monocyte Chemoattractant Protein-1 (MCP-1), and Thymic stromal lymphopoietin (TSLP) released from supernatants collected post stimulation were measured using the AlphaLISA detection kit for human IL-6, MCP-1, and TSLP, respectively.

[2] = system: THP1 human macrophage cells; assay: Stimulation of THP-1 cells, IL-6 at 6 or 36 hours post stimulation; settings: THP1-derived macrophages, IFNγ + LPS, 0.1 to 500 μM, FIG. 9
Protocol: Human immortalized monocytic THP-1 cells were maintained in phenol red free RPMI 1640 medium containing 10% (v/v) fetal bovine serum (FBS), 2 mM L-glutamine, penicillin (100 units/mL), streptomycin (100 μg/mL), amphotericin B (2.5 μg/mL), and 50 μM beta-mercaptoethanol (BME) at 37° C. with 5% (v/v) CO2. THP-1 cells were seeded in 1 mL of THP-1 medium (cell culture medium containing 10% (v/v) FBS, 2 mM L-glutamine, penicillin (100 units/mL), streptomycin (100 μg/mL), amphotericin B ([…]), and 50 μM BME)/well at a density of 1×10^6 cells/mL in six-well plates. Cells were differentiated by adding 10, 50, or 100 nM phorbol 12-myristate 13-acetate (PMA) to each well before incubating cells for 5.5 h at 37° C. with 5% (v/v) CO2. Without removing the media, different concentrations (either 0, 0.1, 1.0, 10, 100, 200, or 500 μM) of the compound were added to each well. Cells were stimulated, within 30 min by adding 20 ng/mL interferon gamma (IFNγ) and 100 ng/mL lipopolysaccharide (LPS) to each well. Following stimulation, the THP-1 cells were incubated for 6 or 36 hours at 37° C. with 5% (v/v) CO2. Supernatant was collected and stored at −80° C. until use.
IL-6 released from supernatants collected at 6 or 36 hours post stimulation with IFNγ and LPS were measured using the AlphaLISA Human IL-6 detection kit.

For `C[C@H](CC/C=C/C(=O)OCC1CCCCC1)O[C@@H]1O[C@@H](C)[C@H](O)C[C@H]1O` [Compound 3, cyclohexylmethyl (2E,6R)-6-{[(2R,3R,5R,6S)-3,5-dihydroxy-6-methyloxan-2-yl]oxy}hept-2-enoate], the “percent inhibition relative to Stimulated of IL-6 expression” value (human naïve T cells) was “statistically significant inhibition”, the “percent inhibition relative to Stimulated of IL-8 expression” value (human naïve T cells) was “statistically significant inhibition” and the “percent inhibition relative to Stimulated of TNFα expression” value (human naïve T cells) was “statistically significant inhibition”. The “percent inhibition relative to Stimulated of TSLP expression” value ([1]; FIG. 19A) was “statistically significant inhibition; also recorded: completely inhibited”, the “percent inhibition relative to Stimulated of IL-6 expression” value ([1]; FIG. 19B) was “inhibited IL-6 expression in statistically significant, dose-dependent manner” and the “percent inhibition relative to Stimulated of MCP-1 expression” value ([1]; FIG. 19C) was “inhibited MCP-1 expression in statistically significant, dose-dependent manner”. The “percent inhibition relative to Control of IL-6 levels secreted” value [2] was “inhibited IL-6 expression in statistically significant, dose-dependent manner”.
